Results reported in paper PMC6270246, “Anthraquinones of the Roots of Pentas micrantha” (Molecules, 2012).
Where two headings read alike, the source gives them in different places.

Tests used:
[1] = Cytotoxicity assay (PrestoBlue cell viability, 48 h); assay type: cell-based; conditions: human, MCF-7 breast cancer cells, MCF-7 cells, mean of at least six independent experiments, read-out: CC50 (cytotoxic concentration)
Experimental: MCF-7 human breast cancer cells were cultured in Dulbecco’s modified eagle medium (DMEM) supplemented with 10% (v/v) fetal bovine serum, 2 mM L-glutamine, 100 units/mL penicillin and 100 µg/mL streptomycin at 37 °C in humidified 5% CO2. For cytotoxicity assays, cells were seeded in 96-well plates at optimal cell density to ensure exponential growth for the duration of the assay. After a 24-h preincubation growth, the medium was replaced with experimental medium containing the appropriate drug concentrations or vehicle controls (0.1% or 1.0% v/v DMSO). After 48 h incubation, cell viability was measured using PrestoBlue™ Cell Viability Reagent (Invitrogen Ab, Lidingö, Sweden) according to the manufacturer’s instructions. […] Results were expressed as the mean ± standard error for six replicates as a percentage of vehicle control (taken as 100%). Experiments were performed independently at least six times. Statistical analyses were performed using a two-tailed Student’s t-test. p < 0.05 was considered to be statistically significant.

[2] = system: MCF-7 human breast cancer cells; set-up: method as in PMID 21979929; conditions: MCF-7 cells; bioactivity previously published; read-out: CC50 (cytotoxic concentration); cited from earlier work
[3] = system: Indochina W2 chloroquine-resistant Plasmodium falciparum strain; set-up: method as in PMID 21979929; conditions: P. falciparum W2 strain; in vitro; bioactivity previously published; cited from earlier work
[4] = system: Sierra Leone D6 chloroquine-sensitive Plasmodium falciparum strain; set-up: method as in PMID 21979929; conditions: P. falciparum D6 strain; in vitro; bioactivity previously published; cited from earlier work
[5] = system: Indochina W2 chloroquine-resistant Plasmodium falciparum strain; assay: Malaria SYBR Green I-based in vitro drug susceptibility assay, W2 strain; assay type: cell-based
Experimental: (§1) For cytotoxicity (CC50) assay 1-isopropyl-3-(pyridin-4-ylethynyl)-1H-pyrazolo[3,4-d]pyrimidin-4-amine was used as reference substance.
(§2) Sierra Leone D6 chloroquine-sensitive and the Indochina W2 chloroquine-resistant Plasmodium falciparum strains (donated by the Walter Reed Army Institute for Research [WRAIR], 503 Robert Grant Avenue, Silver Spring, MD 20910, USA) were maintained in continuous culture to attain replication robustness prior to assays. Drug susceptibility was tested by the Malaria SYBR Green I-based in vitro assay technique.

[6] = system: Sierra Leone D6 chloroquine-sensitive Plasmodium falciparum strain; assay: Malaria SYBR Green I-based in vitro drug susceptibility assay, D6 strain; assay type: cell-based
Experimental: as §1, §2

CC(C)n1nc(C#Cc2ccncc2)c2c(N)ncnc21 [1-isopropyl-3-(pyridin-4-ylethynyl)-1H-pyrazolo[3,4-d]pyrimidin-4-amine, reference compound]
CC50 at 48 h [1]: 5 µM

COc1c(CO)c(O)cc2c1C(=O)c1ccc(O)c(O)c1C2=O [Compound 8, 5,6-dihydroxydamnacanthol]
CC50 [2]: > 450 µM | IC50 [3]: 61.17 ± 0.02 µM | IC50 [4]: 47.53 ± 0.01 µM

COc1c(C=O)c(O)cc2c1C(=O)c1ccccc1C2=O [Compound 7, damnacanthal]
CC50 [2]: 316 µM | IC50 [3]: 38.6 µM | IC50 [4]: 27.2 µM

COc1c(CO)c(O)cc2c1C(=O)c1ccccc1C2=O [Compound 3, damnacanthol]
CC50 [2]: 238 µM | IC50 [3]: 110.6 ± 0.01 µM | IC50 [4]: 56.6 µM

CCN(CC)CCCC(C)Nc1ccnc2cc(Cl)ccc12 (centres unmarked) [chloroquine]
IC50 ([5]; W2, read-out: IC50 (W2)): 0.522 µM | IC50 ([6]; D6, read-out: IC50 (D6)): 0.0147 µM

COCc1c(O)cc2c(c1O)C(=O)c1ccc(O)c(O)c1C2=O [Compound 6, 1,3,5,6-tetrahydroxy-2-(methoxymethyl)-9,10-anthraquinone]
CC50 at 48 h [1]: 258 µM | IC50 ([5]; P. falciparum W2 strain, in vitro, mean of at least 3 independent experiments, read-out: IC50 W2): 35.41 ± 0.01 µM | IC50 ([6]; P. falciparum D6 strain, in vitro, mean of at least 3 independent experiments, read-out: IC50 D6): 31.84 ± 0.01 µM

COc1c(C)c(O)cc2c1C(=O)c1ccccc1C2=O [Compound 4, rubiadin-1-methyl ether]
CC50 [2]: 208 µM | IC50 [3]: 70.6 µM | IC50 [4]: 45.07 ± 0.01 µM

OC(c1cc(C(F)(F)F)nc2c(C(F)(F)F)cccc12)C1CCCCN1 (centres unmarked) [mefloquine]
IC50 ([5]; P. falciparum W2 strain, positive controls, read-out: IC50 (W2)): 0.00665 µM | IC50 ([6]; P. falciparum D6 strain, positive controls, read-out: IC50 (D6)): 0.0876 µM

COCc1c(O)cc2c(c1O)C(=O)c1ccccc1C2=O [Compound 2, lucidin-ω-methyl ether]
CC50 [2]: > 352 µM | IC50 [3]: 46.44 ± 0.01 µM | IC50 [4]: 42.54 ± 0.01 µM

Cc1c(O)cc2c(c1O)C(=O)c1ccccc1C2=O [Compound 5, rubiadin]
CC50 [2]: 310 µM | IC50 [3]: 31.91 ± 0.01 µM | IC50 [4]: 21.5 µM

Cc1ccc2c(c1)C(=O)c1ccccc1C2=O [Compound 1, tectoquinone]
CC50 [2]: > 100 µM | IC50 [3]: 48.56 ± 0.01 µM | IC50 [4]: 30.36 ± 0.01 µM
